Article PMC7525492, “Microtiter plate-based antibody-competition assay to determine binding affinities and plasma/blood stability of CXCR4 ligands” (Scientific Reports, 2020)
Values joined by “and” are separate entries in the source; they are usually repeats but may differ in a detail not shown here. Equal values may be shown once. Where a name gives a salt, the structure may show the parent alone. Read-outs that look alike come from different tables or passages of the source. Bridge positions count the residues as written; N and C are the ends. Square brackets hold non-standard residues; d marks the D form. Ends that are not written are not given here. Peptide text beside a SMILES is read from it. I, II: the chains in the order shown. 2Nal = N[C@@H](Cc1ccc2ccccc2c1)C(=O)O; Lys(iPr) = CC(C)NCCCC[C@H](N)C(=O)O

Legend:
SupT1 cells [1] = test: cells; details: Homo sapiens, SUP-T1, 4 h, read-out: IC50 Migration
CXCR4-tropic HIV-1 [2] = test: microbe, parasite or virus in culture; details: Human immunodeficiency virus 1, TZM-bl, 72 h, read-out: IC50 HIV-1
[3] = Functional stability in human plasma read out by 12G5 competition; format: in vitro ADME; details: for 12G5-competing activity after incubation in plasma / half-life at 20 µM / ability to block 12G5 binding after incubation in plasma / half-life t1/2 in plasma: 37 °C; for 12G5-competing activity after incubation in plasma: 24 h (AMD3100 also 48 h); for half-life at 20 µM: human, plasma, read-out: half-life t1/2 in plasma; for ability to block 12G5 binding after incubation in plasma: plasma of the individual donor, up to 24 h
Description: The t = 0 sample was immediately taken and stored at − 80 °C. Plasma/compound or blood/compound mixture was then transferred to 37 °C and shook at 350 rpm. At given time points samples were taken and stored at − 80 °C. For measuring the functional activity of the plasma/peptide samples, the mixtures were thawed and serially diluted in ice cold PBS (starting with 100% sample). 12G5-APC antibody competition was then performed as described before. Note, that during the competition process the samples are 1:1 diluted with the antibody and the highest plasma concentration on cells was 50%. For blood/peptide functional stability, samples were thawed and centrifuged at 14,000 rpm for 3 min at 4 °C to remove cells and debris. The supernatant was then serially diluted in PBS (starting with 100% sample) and 12G5-antibody competition assay was performed. […] Afterwards cells were washed again and analyzed for bound antibody.
(§1) Statistical analysis was performed in GraphPad Prism (version 8.3.0). IC50 and IC90 curves and the areas under the curves (AUC) were determined by nonlinear regression.

in vitro = in vitro ADME, human; details: for half-life at 20 µM: 20 µM in whole EDTA blood of an individual donor, 37 °C, read-out: half-life t1/2 in blood
Description: Compounds were 150-fold diluted in human plasma or whole human blood to reach final concentrations of 20 µM. The t = 0 sample was immediately taken and stored at − 80 °C. Plasma/compound or blood/compound mixture was then transferred to 37 °C and shook at 350 rpm. At given time points samples were taken and stored at − 80 °C. For measuring the functional activity of the plasma/peptide samples, the mixtures were thawed and serially diluted in ice cold PBS (starting with 100% sample). 12G5-APC antibody competition was then performed as described before. Note, that during the competition process the samples are 1:1 diluted with the antibody and the highest plasma concentration on cells was 50%. For blood/peptide functional stability, samples were thawed and centrifuged at 14,000 rpm for 3 min at 4 °C to remove cells and debris. The supernatant was then serially diluted in PBS (starting with 100% sample) and 12G5-antibody competition assay was performed. After the 2 h incubation, the cells were washed by centrifugation (1.300 rpm, 4 °C) and 50 µL of 1-step-Fix/Lyse solution (Thermo Fisher #00-5333-54) was added for 15 min at room temperature. Afterwards cells were washed again and analyzed for bound antibody.
Statistical analysis was performed in GraphPad Prism (version 8.3.0). IC50 and IC90 curves and the areas under the curves (AUC) were determined by nonlinear regression. For half-life calculations, the IC50 values for each time point as well as the AUCs were analyzed and normalized relative to t = 0. Activities were then determined ((IC50 (t = 0) / IC50 (t)) × 100) for each time point and half-lives determined by a One-Phase-Decay model.

[4] = administered AMD3100; cited from earlier work
CXCR4-tropic HIV-1 [5] = details: TZM-bl cells; for IC50: read-out: IC50 HIV-1
SupT1 cells [6] = details: read-out: IC50 Migration
CXCR4 = CXCR4 (Homo sapiens, UniProt P61073); test: 12G5 antibody competition assay on SupT1 cells; format: binding; details: for IC50: APC-labelled 12G5, 2 h at 4 °C, mean ± SEM of 3 assays; for Ki: calculated from IC50 12G5 by Cheng-Prusoff, Kd of 12G5 151.5 pM
Description: Compounds were serially diluted in ice cold PBS and 12G5-APC antibody was diluted in cold PBS containing 1% FCS. […] Plates were incubated at 4 °C in the dark for 2 h. Afterwards cells were washed twice by centrifugation with PBS containing 1% FCS and fixed with 2% paraformaldehyde (PFA). During all pipetting steps, plates were kept cool by using a cooling pad. Antibody binding was analyzed by flow cytometry (FACS CytoFLEX; Beckman Coulter) by determination of the mean fluorescence intensity (MFI) of at least 5.000 cells (50.000 cells per well) or 1.000 cells (5.000 cells per well).
Ki calculation3 Ki=IC50/1+L/Kd
For Ki = inhibitory constant; IC50 = half maximal inhibition for 12G5 binding; [L] = 12G5 concentration; Kd = dissociation constant of 12G5.
as §1

[7] = target: C-X-C chemokine receptor type 4 (CXCR4) (human (endogenous in SupT1)) (UniProt P61073)
CXCR7 = details: cited from earlier work
CXCL12 migration = details: cited from earlier work
[8] = EPI-X4 sandwich ELISA; cited from earlier work
[9] = target: T1, C-X-C chemokine receptor type 4 (CXCR4) (human (endogenous in SupT1)), P61073
T1 chain: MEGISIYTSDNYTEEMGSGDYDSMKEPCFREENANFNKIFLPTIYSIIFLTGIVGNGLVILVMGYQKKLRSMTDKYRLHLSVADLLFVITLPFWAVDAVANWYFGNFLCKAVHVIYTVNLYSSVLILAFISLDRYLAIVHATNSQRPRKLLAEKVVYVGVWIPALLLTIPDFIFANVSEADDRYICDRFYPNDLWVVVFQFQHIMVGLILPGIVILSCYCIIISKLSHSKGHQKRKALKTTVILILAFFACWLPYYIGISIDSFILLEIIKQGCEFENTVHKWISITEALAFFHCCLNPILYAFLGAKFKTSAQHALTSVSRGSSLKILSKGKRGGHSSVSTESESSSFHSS

[10] = target: T1, C-X-C chemokine receptor type 4 (CXCR4) …; test: flow cytometry on cells; competition with APC-labelled anti-CXCR4 antibody 12G5 (0.245 nM final) on SupT1 cells (5000 cells per well for Ki, or 50,000); compounds in PBS, antibody in PBS with 1% FCS; 2 h at 4 °C in the dark; Ki calculated from IC50 by the Cheng-Prusoff transformation with the Kd of 12G5 (151.5 pM)
[11] = target: T2, C-X-C chemokine receptor type 4 (CXCR4) (human (endogenous in SupT1), UniProt P61073 1-352); test: cell-based or functional assay
[12] = target: T2, C-X-C chemokine receptor type 4 (CXCR4); test: flow cytometry on cells; competition with APC-labelled anti-CXCR4 antibody 12G5 (0.245 nM final) on SupT1 cells (5000 cells per well for Ki, or 50,000); compounds in PBS, antibody in PBS with 1% FCS; 2 h at 4 °C in the dark; Ki calculated from IC50 by the Cheng-Prusoff transformation with the Kd of 12G5 (151.5 pM); details: one partner purified
[13] = 20 µM in plasma of an individual donor
[14] = 20 µM in pooled human plasma, Fig. 4a
[15] = 20 µM in pooled human plasma (6 donors), from IC50 relative to t = 0, one-phase decay
[16] = infection rate after 3 days, mean ± SEM of 3 assays

Molecule: NCCCCN(Cc1nc2ccccc2[nH]1)[C@H]1CCCc2cccnc21 [AMD070]
- IC50 (SupT1 cells [1]): 152 ± 3 nM
- IC50 (CXCR4-tropic HIV-1 [2]): 23 ± 4 nM

Molecule: c1cc(CN2CCCNCCNCCCNCC2)ccc1CN1CCCNCCNCCCNCC1 [AMD3100, AMD3100 octahydrochloride hydrate]
- 12G5-competing activity after incubation in plasma ([3]; 20 µM in pooled human plasma): remained fully active
- half-life at 20 µM [3, 13]: > 24 h
- half-life at 20 µM [3, 14]: > 48 h
- half-life at 20 µM ([3]; 20 µM in pooled human plasma, Fig. S5a, no unit at the value, time axis in min, estimated by eye): > 24 h
- ability to block 12G5 binding after incubation in plasma [3]: remained fully active
- ability to block 12G5 binding after incubation in whole blood (in vitro): remained fully active
- half-life at 20 µM (in vitro; human): > 24 h
- IC50 (SupT1 cells [1]): 60 ± 13 nM
- fraction bound to plasma proteins [4]: 58%
- IC50 (CXCR4-tropic HIV-1 [2]): 36 ± 6 nM

Molecule: CC[C@H](C)[C@H](N)C(=O)N[C@H](C(=O)N[C@@H](CCCNC(=N)N)C(=O)N[C@@H](Cc1c[nH]c2ccccc12)C(=O)N[C@@H](CO)C(=O)N[C@@H](CCCCN)C(=O)N[C@@H](CCCCN)C(=O)N[C@H](C(=O)N1CCC[C@H]1C(=O)N[C@@H](CSSC[C@H](NC(=O)[C@@H]1CCCN1C(=O)[C@@H](NC(=O)[C@H](CCCCN)NC(=O)[C@H](CCCCN)NC(=O)[C@H](CO)NC(=O)[C@H](Cc1c[nH]c2ccccc12)NC(=O)[C@H](CCCNC(=N)N)NC(=O)[C@@H](NC(=O)[C@@H](N)[C@@H](C)CC)C(C)C)C(C)C)C(=O)N[C@H](C(=O)N[C@@H](CO)C(=O)O)C(C)C)C(=O)N[C@H](C(=O)N[C@@H](CO)C(=O)O)C(C)C)C(C)C)C(C)C [EPI-X4 WSC02x2] (I: H-IVRWSKKVPCVS-OH / II: H-IVRWSKKVPCVS-OH; disulfide I:10-II:10; N-terminus and C-terminus assumed)
- half-life at 20 µM [3, 13]: ~3 h
- half-life at 20 µM [3, 15]: 3.22 h
- half-life at 20 µM ([3]; human plasma, value in discussion): > 3 h
- fold more stable than WSC02 in plasma ([3]; pooled human plasma, ratio of t1/2): 19 fold
- half-life at 20 µM (in vitro; human): 1.33 h
- stability in blood compared to plasma (in vitro; human, plasma): less stable in blood compared to plasma

Molecule: CC1(C)CN2C(CSC(=NC3CCCCC3)NC3CCCCC3)=CSC2=N1 [IT1t]
- half-life t1/2 in plasma [3, 13]: ca. 480 min
- 12G5-competing activity after incubation in plasma ([3]; 20 µM in pooled human plasma): remained fully active
- half-life t1/2 in plasma [3, 14]: < 24 h
- ability to block 12G5 binding after incubation in plasma [3]: moderately impaired
- ability to block 12G5 binding after incubation in whole blood (in vitro): moderately impaired
- IC50 (CXCR4-tropic HIV-1 [5]; [16]): 5 ± 0.9 nM
- IC50 (SupT1 cells [6]): 230 ± 20 nM

Molecule: CC(C)NCCCC[C@H](NC(=O)[C@H]1CCC(=O)N[C@@H](Cc2ccccc2)C(=O)N[C@@H](Cc2ccc(O)cc2)C(=O)N[C@@H](CCCCNC(C)C)C(=O)N[C@H](CCCNC(=N)N)C(=O)N[C@@H](Cc2ccc3ccccc3c2)C(=O)NCC(=O)N1)C(N)=O [LY2510924] (FY[Lys(iPr)][dR][2Nal]G[dE][Lys(iPr)]-NH2; lactam N-7)
- IC50 (CXCR4; SupT1 cells): 151 ± 78 nM
- Ki (CXCR4): 58 ± 30 nM
- IC50 (CXCR4-tropic HIV-1 [5]; [16]): 8 ± 0.8 nM
- IC50 (SupT1 cells [6]; 100 ng/mL CXCL12, 4 h, mean ± SEM of 3 assays): 66 ± 8 nM

Molecule: c1cnc(NCc2ccc(CNc3ncccn3)cc2)nc1 [MSX-122]
- effect on 12G5 binding (CXCR4; SupT1 cells): did not interfere with 12G5 binding
- IC50 (CXCR4; SupT1 cells): > 100000 nM
- effect on CXCR4-tropic HIV-1 infection (CXCR4-tropic HIV-1 [5]): not affecting
- IC50 (CXCR4-tropic HIV-1 [2]): > 10000 nM

Molecule: EPI-X4 (Endogenous Peptide Inhibitor of CXCR4)
- IC50 of inhibition of infection of TZM-bl reporter cells by CXCR4-tropic HIV-1 (NL4-3), β-galactosidase assay [7]: 31400 nM

Molecule: LVRYTKKVPQVSTPTL [EPI-X4]
- IC50 (CXCR4; SupT1 cells): 1780 ± 162 nM
- Ki (CXCR4): 677 ± 62 nM
- half-life at 20 µM [3, 15]: 0.383 h
- IC50 (CXCR4-tropic HIV-1 [5]): 31000 nM
- IC50 (CXCR4-tropic HIV-1 [5]; [16]): 31400 nM
- CXCR7 binding (CXCR7): does not bind CXCR7
- IC50 to suppress CXCL12 migration (CXCL12 migration): median micromolar range
- half-life in plasma [8]: 17 min and ~ 17 min

Molecule: IVRWSKKVPCVS (modifications not checked) [EPI-X4 WSC02]
- IC50 of inhibition of SupT1 cell migration towards CXCL12 (100 ng/mL, transwell); the pair antagonized is CXCL12 with CXCR4 [9]: 15800 nM
- IC50 of inhibition of infection of TZM-bl reporter cells by CXCR4-tropic HIV-1 (NL4-3), β-galactosidase assay [9]: 257 nM
- IC50 [10]: 290 nM
- Ki [10]: 111 nM

B1: EPI-X4 WSC02x2 (peptide)
chain: IVRWSKKVPCVS
modifications: also: homodimer via intermolecular disulfide, disulfide at 10, other end not in the chain
- IC50 of inhibition of SupT1 cell migration towards CXCL12 (100 ng/mL, transwell); the pair antagonized is CXCL12 with CXCR4 [11]: 2670 nM
- IC50 of inhibition of infection of TZM-bl reporter cells by CXCR4-tropic HIV-1 (NL4-3), β-galactosidase assay [11]: 254 nM
- IC50 [12]: 182 nM
- Ki [12]: 69 ± 12 nM
